Source: patent US12458608B2 (NACUITY PHARMACEUTICALS, INC., priority 2019, dated 2025)
“Also recorded” adds a separate entry of the source.

Experiments:
[1] = tested on: Light melanin human skin explant; experiment: Human skin explants exposed to UVA radiation, GSSG/thiol analysed by LCMS; format: cell-based; conditions: for Levels of thiol production in human skin exposed to UVA-induced oxidative skin damage: FIG. 3; for Dermal GSSG / levels of GSSG production: topical 100 mM in 10% DMSO/water 30 min prior to UVA (24 J/cm2), tissue harvested 24 hours after UVA, single donor, n=6
Description: Effects of NPI-001 (NACA 10 mM) and diNACA (10 mM) on human skin explants upon radiation (UVA) exposure.
Light melanin human skin explant (single donor; n=6) in transwells were exposed to UVA radiation (24 J/cm2) with and without topical application of the NPI-001 and diNACA at a final concentration of 100 mM (NPI-001 16.2 mg/ml; diNACA 32.2 mg/ml) dissolved or suspended in 10% DMSO/water and applied at ˜18 μl/cm2(˜6 μl/0.33 cm2) 30 min prior to UVA exposure (24 J/cm2 exposure). 24 hours following UVA exposure tissue was harvested, cut in half and heat separated into epidermal and dermal layers; weighed; immediate submersion of the dermal and epidermal layers into a derivatization solution, analyzed by LCMS.

[2] = target: glutamate cysteine ligase (GCL, EC 6.3.2.2); conditions: nonallosteric competitive inhibition; cited from earlier work
[3] = cited from earlier work
[4] = tested on: Reconstructed human epithelium (RHE) with melanocytes (MelanoDerm); experiment: Reconstructed human epithelium (RHE) model to assess decrease of pigmentation in skin (photographs, melanin extraction); format: cell-based; conditions: for RHE pigmentation: MelanoDerm RHE cultured 14 days, basolateral treatment every other day, NACA 10 mM, diNACA 10 mM, 2% GSSG, vs relative day untreated control
Description: Reconstructed human epithelium (RHE) model to assess the ability of NPI-001 and NPI2 to decrease pigmentation in skin:
Reconstructed human epithelium (RHE) with melanocytes were obtained from MatTek (MelanoDerm™ cat #MEL-300B). RHE were cultured for 14 days with reapplication of media with basolateral treatment every other day. Day 0, Day 7 and Day 14 RHE were photographed and frozen for melanin extraction.
After harvest of RHE on Day 14, cultures were submerged for 30 min in 1% sodium bicarbonate and transferred to Eppendorf tubes with 500 μl Solvable™ reagent for overnight incubation at 60° C. A synthetic melanin standard curve was made in Solvable™ reagent from 0.5-0.0039 mg/ml in half dilutions. 200 μl of extracted melanin was transferred to a 96 well plate and read at 490 nm for quantification.

SMILES: CC(=O)N[C@@H](CS)C(N)=O
- Levels of thiol production in human skin exposed to UVA-induced oxidative skin damage [1]: increased
- Dermal GSSG / levels of GSSG production [1]: increased; also recorded: statistically significant increases

SMILES: N[C@@H](CCC(=O)N[C@@H](CS)C(=O)NCC(=O)O)C(=O)O [GSH, c-L-glutamyl-L-cysteinyl-glycine]
- Ki [2]: 2.3 mM

SMILES: CC(=O)N[C@@H](CS)C(=O)O [NAC, N-acetylcysteine]
- NAC detectable after administration ([3]; 10-12 hours after administration): no NAC is detectable
- Plasma half-life ([3]; humans): 2.5 h
- Absorption and clearance ([3]; oral dose of 600 mg in humans): rapidly absorbed and then rapidly cleared

SMILES: CC(=O)N[C@@H](CSSC[C@H](NC(C)=O)C(N)=O)C(N)=O [diNACA, (2R,2R′)-3,3′-disulfanediyl bis(2-acetamidopropanamide)]
- RHE pigmentation [4]: decreased; also recorded: significantly inhibited
- RHE pigmentation ([4]; listed as NPI2): decreased
- Melanin extracted from RHE ([4]; after 0, 7 and 14 days with treatment, read at 490 nm, vs untreated control at relative day of harvest): decreased
- Levels of thiol production in human skin exposed to UVA-induced oxidative skin damage [1]: increased
- Dermal GSSG / levels of GSSG production [1]: increased; also recorded: statistically significant increases
